Measured values taken from paper PMC12090178, “Exploring the Potential of Homologous Recombination Protein PALB2 in Synthetic Lethal Combinations” (ACS Chemical Biology, 2025).
Like-named read-outs stand apart in the source and are kept apart here. Where a SMILES comes first, the peptide text is derived from it. Where no end group is shown, it is not given here. The star is where a group is joined. Azidoacetyl = [N-]=[N+]=NCC(=O)*; Cbz = O=C(OCc1ccccc1)*

Assays:
PALB2C = target: T1, PALB2C (Homo sapiens, UniProt Q86YC2); test: Displacement polarization assay (competition with FLU-GG-[…]); conditions: dark peptide 10 μM, probe FLU-GG-[…] 10 nM, 20 min RT, 25 °C, competitive binding fit
T1 construct: C terminal part of Palb2 (aa 835-1186); His tag (C); 3C protease site; host or cells: Hi5 insect cells (virus produced and amplified in Sf9)
T1 sequence (Q86YC2 835-1186): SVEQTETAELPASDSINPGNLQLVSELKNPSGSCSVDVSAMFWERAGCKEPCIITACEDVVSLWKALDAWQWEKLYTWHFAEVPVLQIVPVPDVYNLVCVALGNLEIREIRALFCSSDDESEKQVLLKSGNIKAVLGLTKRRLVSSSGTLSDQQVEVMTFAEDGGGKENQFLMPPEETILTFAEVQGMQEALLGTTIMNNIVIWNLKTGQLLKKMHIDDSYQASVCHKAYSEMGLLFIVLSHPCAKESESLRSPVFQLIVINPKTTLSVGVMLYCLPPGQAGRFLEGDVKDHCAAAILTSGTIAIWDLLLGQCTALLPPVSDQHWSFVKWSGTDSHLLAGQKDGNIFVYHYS
Procedure: To the mixture above, the dark peptide was added at a final concentration of 10 μM (1000 eq. excess). After incubation in the dark at RT for 20 min, fluorescence polarization was measured (ex: 485:20, em: 535:25, 25 °C).KD was obtained by fitting the signal to a competitive binding model described previously[52] by using the python lmfit package with the nonlinear least-squares method.
9.3 Displacement polarization assay
The displacement assay was set up similarly to the direct polarization assay. In addition to the
DMSO) was added to a final concentration of 20 μM.
μM and 10 nM for the peptide and the probe, respectively.
The resulting binding curve was fitted using the python lmfit package3 to a linearly transformed competitive KD binding model described previously4 using the non- linear least
𝑚𝑚 = 𝐾𝐾D, Probe + 𝐾𝐾D, Pep + 𝑐𝑐Probe + 𝑐𝑐Pep − 𝑐𝑐Prot
𝑛𝑛 = 𝐾𝐾D, Pep ⋅ (𝑐𝑐Probe − 𝑐𝑐Prot ) + 𝐾𝐾D, Probe ⋅ ?𝑐𝑐Pep − 𝑐𝑐Prot ? + 𝐾𝐾D, Pep ⋅ 𝐾𝐾D, Probe 𝑜𝑜 = −𝐾𝐾D, Pep ⋅ 𝐾𝐾D, Pro be ⋅ 𝑐𝑐Prot
𝜃𝜃 = cos −1 ?−2𝑚𝑚 3 + 9𝑚𝑚𝑛𝑛 − 27𝑜𝑜 ?
𝑟𝑟 = 2 ⋅ ?𝑚𝑚 2 − 3𝑛𝑛 ⋅ cos 𝜃𝜃3 − 𝑚𝑚
𝑓𝑓 = 𝑐𝑐Probe ⋅ 𝑟𝑟3 ⋅ 𝐾𝐾D, Probe + 𝑟𝑟

PALB2-IKZF3d = test: IMiD-induced degradation of PALB2-IKZF3d (Western blot); assay type: cell-based; conditions: for rescue of pomalidomide-induced PALB2-IKZF3d degradation: 1 μM inhibitor 6 h, then 10 μM pomalidomide 18 h
Procedure: 5.1 Degradation of PALB2 and UPP rescue assays
To show PALB2 deegradation, cells were treated with pomalidomide at the indicated concentrations for 24 h. The cells were subsequently lysed and prepared for gel electrophoresis and western blotting.
To show UPP rescue, MG132 and MLN4924 were used to inhibit the ubiquitination-proteasome degradation pathway. The cells were first treated with 1 μM MG132 or 1 μM MLN4924. After 6 h, pomalidomide was added to a final concentration of 10 μM. After 18 h, the cells were collected and lysed.
To show PALB2 recovery, the cells were first treated with 10 μM pomalidomide or 10 μM iberdomide for 24 h. After that, the culture medium was removed, the cells were washed three times with fresh culture medium and then cultured with culture medium without IMiDs.
The cells were then collected an d l yse d . […]
Figure S7. A). Degradation of endogenous PALB2.
B). PALB2 de gra dation rescue expe ri ment. The cells in the degradation rescue group w ere first t reated with 1 μ M MG132 and 1 μ M M LN49 24 for 6 hou rs and then t reated with 10 μ M pomalidomide for 1 8 hours. Cell samples were collected for WB analysis. The asterisk represents a nonspecific band of PALB 2 with t his antibody. […]

[1] = target: T2, PALB2 C-terminal domain (PALB2C) (Homo sapiens, UniProt Q86YC2); test: Direct fluorescence polarization of labelled BRCA2 peptides; assay type: binding; conditions: for Kd: direct FP, PALB2C source Hi5 insect cells, labelled peptide 10 nM, PALB2C serially diluted from 4.4 μM, 20 mM HEPES, 100 mM NaCl, 1 mM DTT, 1 mM EDTA, 0.01% IGEPAL CA-630, 20 min RT, read at 25 °C, N = 3-20
T2 construct: C terminal part of Palb2 (aa 835-1186); His tag (C); 3C protease site; host or cells: Hi5 insect cells (virus produced and amplified in Sf9)
T2 sequence (Q86YC2 835-1186): T1 sequence (Q86YC2 835-1186)
Procedure: FLU-GG-[…] (Peptide Protein Research Ltd., Fareham, UK) was dissolved in DMSO at 1 μM. PALB2C (22 μM, in 20 mM HEPES, 100 mM NaCl, 1 mM DTT, 1 mM EDTA) was diluted to a final concentration of 4.4 μM (same buffer supplemented with 0.01% (v/v) IGEPAL CA-630). The protein was serially diluted and fluorescent peptide was added to a final concentration of 10 nM. After incubation in the dark at RT for 20 min, fluorescence polarization was measured (ex: 485:20, em: 535:25, 25 °C). KD was obtained by fitting the signal to a binding model using the python lmfit package with the nonlinear least-squares method.[51]
9 Fluorescent polarization assay
9.1.1 Insect cell expression
PALB2-C was synthesized by the EPFL protein production facility0F1. In short; the virus was produced and amplified in Sf9 cells. C-terminal His-Tagged 3C-PALB2C was grown in 5 L o f Hi5 cells and harvested after 3 days. Pellet was frozen, defrosted and resuspended in 200 mL of wash buffer, supplemented to 5 % glycerol (v/v), 50 μL benzonase, and 2 protease inhibitor tablets. The mixture was clarified with a French press for a total of 4 cycles and centrifu g e d a t 32 kcfg for 1 h. The supernatant was decanted, supplemented with imidazole to a final concentration of 25 mM and added to 5 mL of Ni-NTA bead s. The b ead s were in cub ated with […]
The beads were washed with 40 column volumes (CV) with wash buffer (500 mM NaCl, 20 mM HEPES, pH 7.5), 10 CV with wash buffer and 50 mM imid az o le . The protein was eluted with 6 CV of elution buffer (500 mM NaCl, 20 mM HEPES, 300 mM imidazole, pH 7.5) to a total volume of 38 mL. The elute was concentrated to 1 mL and injected onto a pre-equilibrated Superdex 200 10/300GL column (250 mM NaCl, 10 mM HEPES, 5 mM DTT, 1 mM EDTA, pH […]
A total volume of 950 μL PALBC was received at a concentration of 1 mg/mL (equals 22 μM) in the superdex buffer. This corresponds to a yield of 0.19 mg/L of Hi5 cells. […]
Concentration was measured on a NanoDrop 2000. The concentration was determined to be […]

[2] = system: HEK293 PALB2 IKZF3d/IKZF3d knock-in cells; test: Cell viability assay (WST-1); assay type: cell-based; conditions: homozygous KI cells pretreated with 10 μM Pom, then DNA damaging drug, 5 days cotreatment, WST1
[3] = alanine scan of BRCA2 21-35, N = 1-4, read-out: KD (alanine scan)
[4] = truncated BRCA2 peptides, PALB2C source Hi5 (Figure 2B), N = 1-5, read-out: KD (other peptides)

Compound: H-KADLGPISLAWFEEL-NH2 [Peptide P36]
- Kd (PALB2C; [3]): 4 µM

Compound: O=C1CC[C@H](N2Cc3c(OCc4ccc(CN5CCOCC5)cc4)cccc3C2=O)C(=O)N1 [Iber, iberdomide]
- recovery of PALB2 levels after wash out (PALB2-IKZF3d; 10 μM IMiD for 24 h, then medium removed and cells washed, knock-in cells): PALB2 levels recover after 24 h
- degradation of PALB2 in IKZF3d knock-in cells (PALB2-IKZF3d; homozygous IKZF3d knock-in HEK293 cells, 24 h treatment): degradation could also be induced

Compound: H-KADLGPIALNWFEEL-NH2 [Peptide P34]
- Kd (PALB2C; [3]): 4.9 µM

Compound: H-KADLGPISLNWAEEL-NH2 [Peptide P26]
- Kd (PALB2C; [3]): 10.1 µM

Compound: H-KADLGPISLNWFAEL-NH2 [Peptide P27]
- Kd (PALB2C; [3]): 5.1 µM

Compound: H-KADLGPISLNWFE-NH2 [Peptide P14]
- Kd (PALB2C; [4]): 25.2 µM

Compound: Cy5-DBCO-GG-BRCA(21-39): Cy5-modified peptide: P38 modified with 2-azidoacetic acid and Cy5-DBCO ({Cy5‑DBCO-Azidoacetyl}-GGKADLGPISLNWFEELSSEA; UniProt P51587 21-39, looked up, fragment)
- Kd [1]: 0.064 µM

Compound: FLU-GG-KADLGPISLNWFEELSSEA [FAM-GG-BRCA(21-39), fluorescein-labelled BRCA2(21-39) peptide, Peptide Protein Research Ltd; FP probe]
- Kd [1]: 0.63 µM

Compound: CC(C)C[C@@H](C=O)NC(=O)[C@H](CC(C)C)NC(=O)[C@H](CC(C)C)NC(=O)OCc1ccccc1 [MG132] (Cbz-Leu-Leu-Leu-aldehyde)
- rescue of pomalidomide-induced PALB2-IKZF3d degradation (PALB2-IKZF3d): prevented the pomalidomide-induced degradation of PALB2-IKZF 3d

Compound: H-KADLGAISLNWFEEL-NH2 [Peptide P32]
- Kd (PALB2C; [3]): 3.6 µM

Compound: H-KAALGPISLNWFEEL-NH2 [Peptide P29]
- Kd (PALB2C; [3]): 4.6 µM

Compound: H-KADLGPISLNAFEEL-NH2 [Peptide P25]
- Kd (PALB2C; [3]): 5.5 µM

Compound: H-KADLGPISLNWFEEL-NH2 [Peptide P9]
- Kd (PALB2C; [4]): 5 µM

Compound: H-KADLGPISLNWFEAL-NH2 [Peptide P28, H-KADLGPISLNWFEAL-NH2]
- Kd (PALB2C; [3]): 7 µM

Compound: H-GPISLNWFE-NH2 [Peptide P12]
- Kd (PALB2C; [4]): 17.9 µM

Compound: H-GPISLNWFEEL-NH2 [Peptide P7]
- Kd (PALB2C; [4]): 82.2 µM

Compound: CC[C@H](C)[C@H](NC(=O)[C@H](CCC(=O)O)NC(=O)[C@H](Cc1ccccc1)NC(=O)[C@H](Cc1ccccc1)NC(=O)[C@@H](NC(=O)CNC(=O)CNC(=O)c1ccc2c(c1)C(=O)OC21c2ccc(O)cc2Oc2cc(O)ccc21)[C@@H](C)O)C(=O)N[C@@H](Cc1ccccc1)C(=O)N[C@@H](CCCCN)C(=O)N[C@H](C(=O)N[C@@H](CCCNC(=N)N)C(=O)N[C@@H](CS)C(=O)N[C@@H](CC(N)=O)C(=O)N[C@@H](CCCCN)C(=O)N[C@@H](C)C(=O)N[C@@H](CC(=O)O)C(=O)N[C@@H](CC(C)C)C(=O)NCC(=O)N1CCC[C@H]1C(=O)N[C@H](C(=O)N[C@@H](CO)C(=O)N[C@@H](CC(C)C)C(=O)N[C@@H](CC(N)=O)C(=O)N[C@@H](Cc1c[nH]c2ccccc12)C(=O)N[C@@H](Cc1ccccc1)C(=O)N[C@@H](CCC(=O)O)C(=O)N[C@@H](CCC(=O)O)C(=O)N[C@@H](CC(C)C)C(=O)N[C@@H](CO)C(=O)N[C@@H](CO)C(=O)N[C@@H](CCC(=O)O)C(=O)N[C@@H](C)C(N)=O)[C@@H](C)CC)[C@@H](C)O [FAM-GG-BRCA(10-39)] (HELM PEPTIDE1{[O=C1OC2(c3ccc(O)cc3Oc3cc(O)ccc32)c2ccc(C(=O)[*:2])cc21].G.G.T.F.F.E.I.F.K.T.R.C.N.K.A.D.L.G.P.I.S.L.N.W.F.E.E.L.S.S.E.A.[am]}$$$$V2.0; N-terminus and C-terminus assumed)
- gain in binding affinity from residues 12-21 ([1]; FAM-GG-BRCA(10-39) compared with FAM-GG-BRCA(21-39)): 6–10 fold

Compound: H-KADLGPISANWFEEL-NH2 [Peptide P35]
- Kd (PALB2C; [3]): 6.7 µM

Compound: CC[C@@]1(O)C(=O)OCc2c1cc1n(c2=O)Cc2cc3ccccc3nc2-1 [CPT, camptothecin]
- synergistic toxicity with PALB2 depletion [2]: noticeable synergistic toxicity

Compound: H-DLGPISLNWFEEL-NH2 [Peptide P8]
- Kd (PALB2C; [4]): 7.9 µM

Compound: H-KADLGPASLNWFEEL-NH2 [Peptide P33]
- Kd (PALB2C; [3]): 5.3 µM

Compound: NS(=O)(=O)OC[C@@H]1C[C@@H](n2ccc3c(N[C@H]4CCc5ccccc54)ncnc32)C[C@@H]1O [MLN4924]
- rescue of pomalidomide-induced PALB2-IKZF3d degradation (PALB2-IKZF3d): prevented the pomalidomide-induced degradation of PALB2-IKZF 3d

Compound: O=C(c1cc(Cc2n[nH]c(=O)c3ccccc23)ccc1F)N1CCN(C(=O)C2CC2)CC1 [olaparib]
- synergistic toxicity with PALB2 depletion [2]: noticeable synergistic toxicity
